Experimental data published in patent US20250154202A1, “CYCLIC EPITOPE TAGS” (BIONTECH SE, priority 2022, published 2025).
Values belong to the molecule of their own block, whether it stands above or below them. Bridge positions count the residues as written; N and C are the ends. Primed or numbered codes have the meaning given here. Peptide text beside a SMILES is read from it. C(Alexa680) = cysteine labeled with Alexa680 (AlexaFluor680); PEG6′ = PEG6 spacer

How the values were obtained:
[1] = Plasma stability, human plasma; details: for remaining at 24 h, 10 µM / remaining at 2 h, 10 µM / remaining at 6 h, 10 µM / half-life: human; for remaining at 24 h, 10 µM: Li-heparin plasma; for remaining at 2 h, 10 µM / remaining at 6 h, 10 µM: human Li-heparin plasma; for half-life: plasma
Description: (§1) Plasma stability measurements were performed by spiking 5 μl of a 1 mM compound stock solution in DMSO into 495 μl of human or mouse Li-heparin plasma (Innovative Research, Cat. No, IPLALIH5OML (human) and IMS-BC-N (Balb C mouse). The spiked plasma was distributed in 50 μl aliquots into capped PCR tubes for incubation at 37° C. At each time point (0, 2, 6, 24 hours*) 3*aliquots were withdrawn from the incubator. Enzymatic reactions were quenched directly after withdrawal by adding 100 μl of acetonitrile/formic acid=99/1 (v/v). Quenched samples were stored at ambient temperature until the end of the incubation period (24 hrs*). After centrifugation, the supernatant was transferred into fresh vials and analyzed by LC-MS/MS in ESI positive mode (Waters ACQUITY UPLC I-Class System (SM-FTN) with Xevo TQD triple quadrupole mass spectrometer with control software Waters MassLynx). […] Values below the limit of quantification (0.1 μM) and outliers of triplicate results were excluded from further calculations. An exponential regression curve was fitted onto the concentration results. Half-life times were calculated from the slope of the regression curve (t1/2=ln(2)/slope).
(§2) For some samples, as indicated below, the incubation time was 6 hours. The 24 hour data was measured in triplicates whereas the 6 hour data was measured in duplicates.

[2] = Plasma stability, mouse plasma; details: for remaining at 2 h, 10 µM / remaining at 6 h, 10 µM / remaining at 24 h, 10 µM: Balb C, Li-heparin plasma; for remaining at 2 h, 10 µM / remaining at 6 h, 10 µM / remaining at 24 h, 10 µM / half-life: mouse; for half-life: plasma
Description: as §1, §2

NbALFA = test: SPR measurements of NbALFA binding (Biacore T200, multi cycle kinetics, 1:1 binding model); details: for Kd / ka / kd: 25° C., HBS-EP+ buffer, biotinylated NbALFA captured
Description: Affinity measurements were performed using a Biacore T200 (GE Healthcare, Biacore T200 control Software 3.2). […] A freshly docked Biotin CAPture chip was rehydrated overnight in the instrument (standby mode). […] The immobilization of the Nanobody was done for 180 s at 10 μL/min on FC2 followed by quenching of unbound streptavidin by 0.1 mM biocytin for 60 s and 30 μL/min on both flow cells. […] After each cycle, the surface was regenerated for 120 s with 10 μL/min using regeneration solution. All measurements were performed at 25° C. using HBS-EP+ buffer (Cytiva Europe, Cat. no BR100669). The control responses from FC1 were subtracted by the sample measurement in FC2 (FC2−FC1) followed by subtraction of the 0 nM blank injection. Resulting binding curves of this multi cycle kinetic experiment were fitted using the Biacore T200 Evaluation Software 3.2 and a 1:1 binding model.

anti-ALFA VHH = test: binding affinity to the anti-ALFA VHH (log(agonist) vs. response, variable slope); details: for LogEC50: best-fit values, log(agonist) vs. response, variable slope; for EC50: binding to anti-ALFA VHH
[3] = system: target expressing cells previously incubated with the NbALFA×anti-Target Adaptor-Protein; test: FACS cell binding analysis of linear and cyclic ALFA-peptides (AlexaFluor680); assay type: cell-based; details: for binding to target expressing cells (AlexaFluor680 signal): 4 nM to 1024 nM peptide, 30 min at 4° C., after 100 nM NbALFA×anti-Target Adaptor-Protein; for binding on the controls: target-negative cells, pre-incubation with PBS or NbALFA×non-binder
Description: Cells were seeded in a 96-well microtiter plate (round button) to a final density of 2×10^5 and incubated in the presence of 100 nM NbALFA×anti-Target purified Adaptor-Protein (binds with one moiety to ALFA peptide and with the other moiety to cell presented target) or, as a negative control in the presence of 100 nM NbALFA×non-binder (binds with one moiety to the ALFA peptide and with the other moiety to a target which is not available in this experiment) or PBS for 30 min at 4° C. Cells were then washed and incubated with different concentrations (4 nM, 16 nM, 64 nM, 256 nM, and 1024 nM) of the linear [Ac(C-Alexa680)(PEG6)PSRLEEELRRRLTE-NH2] or cyclic [Ac(C-Alexa680)(PEG6)PSRLE(E)ELR(K)RLTE-NH2] ALFA peptide for another 30 min at 4° C. After rewashing, the cells were measured in FACS Canto II (BD Biosciences). AlexaFluor680 signal was used to detect the binding of ALFA peptides. Therefore, excitation Laser Line 633 nm was used to detect the AlexaFluor 680 signal.

[4] = human plasma, 37° C., timepoint 0 h
[5] = human plasma, 37° C., timepoint 0 h, calibration range 0.1 to 10 μM
[6] = human plasma, 37° C., timepoint 2 h
[7] = human plasma, 37° C., timepoint 6 h
[8] = human plasma, 37° C., timepoint 24 h
[9] = Half-life time, human plasma, 37° C., incubation 24 h (triplicates) or 6 h (duplicates)
[10] = mouse plasma, 37° C., timepoint 0 h
[11] = mouse plasma, 37° C., timepoint 0 h, calibration range 0.1 to 10 μM
[12] = mouse plasma, 37° C., timepoint 2 h
[13] = mouse plasma, 37° C., timepoint 6 h
[14] = mouse plasma, 37° C., timepoint 24 h
[15] = Flag (half-life, assay exceeded), mouse plasma, 37° C.
[16] = Half-life time, mouse plasma, 37° C., incubation 24 h (triplicates) or 6 h (duplicates)

Molecule: CC(=O)N[C@@H](CO)C(=O)N[C@@H](CCCNC(=N)N)C(=O)N[C@@H](CC(C)C)C(=O)N[C@@H](CCC(=O)O)C(=O)N[C@H]1CCC(=O)NCCCC[C@@H](C(=O)N[C@@H](CCCNC(=N)N)C(=O)N[C@@H](CC(C)C)C(=O)N[C@H](C(=O)N[C@@H](CCC(=O)O)C(N)=O)[C@@H](C)O)NC(=O)[C@H](CCCNC(=N)N)NC(=O)[C@H](CC(C)C)NC(=O)[C@H](CCC(=O)O)NC1=O [SD15194, Ac-Ser-Arg-Leu-Glu-(cyclo5)Glu-Glu-Leu-Arg-(cyclo9)Lys-Arg-Leu-Thr-Glu-NH2] (Ac-SRLEEELRKRLTE-NH2; lactam 5-9)
Half-life time ([1]; human plasma, 37° C., incubation 24 h (triplicates) or 6 h (duplicates), listed as SD 00015194): 33.48 h
Conc. (% of T0) [1, 4]: 100.0 % of T0
Mean (compound concentration) [1, 4]: 2.26
Tube 2 (compound concentration) [1, 4]: 2.271
Tube 3 (compound concentration) [1, 4]: 2.302
Tube 1 (compound concentration) [1, 5]: 2.215
Mean (compound concentration) [1, 6]: 2.09
Tube 1 (compound concentration) [1, 6]: 2.086
Tube 2 (compound concentration) [1, 6]: 2.052
Tube 3 (compound concentration) [1, 6]: 2.117
Mean (compound concentration) [1, 7]: 1.99
Tube 1 (compound concentration) [1, 7]: 1.884
Tube 2 (compound concentration) [1, 7]: 2.057
Tube 3 (compound concentration) [1, 7]: 2.041
Mean (compound concentration) [1, 8]: 1.36
Tube 1 (compound concentration) [1, 8]: 1.322
Tube 2 (compound concentration) [1, 8]: 1.377
Tube 3 (compound concentration) [1, 8]: 1.368
remaining at 24 h, 10 µM [1]: 59.9%
remaining at 2 h, 10 µM [1]: 92.1%
remaining at 6 h, 10 µM [1]: 88.1%
half-life ([1]; Flag (half-life, assay exceeded), human plasma, 37° C.): > 24 h
half-life [1, 9]: > 24 h
remaining at 2 h, 10 µM [2]: 95.5%
remaining at 6 h, 10 µM [2]: 85.4%
remaining at 24 h, 10 µM [2]: 62.3%
Half-life time ([2]; mouse plasma, 37° C., incubation 24 h (triplicates) or 6 h (duplicates), listed as SD 00015194): 35.69 h
Conc. (% of T0) [2, 10]: 100.0 % of T0
Mean (compound concentration) [2, 10]: 2.57
Tube 2 (compound concentration) [2, 10]: 2.488
Tube 3 (compound concentration) [2, 10]: 2.617
Tube 1 (compound concentration) [2, 11]: 2.606
Mean (compound concentration) [2, 12]: 2.46
Tube 1 (compound concentration) [2, 12]: 2.526
Tube 2 (compound concentration) [2, 12]: 2.467
Tube 3 (compound concentration) [2, 12]: 2.373
Mean (compound concentration) [2, 13]: 2.20
Tube 1 (compound concentration) [2, 13]: 2.178
Tube 2 (compound concentration) [2, 13]: 2.256
Tube 3 (compound concentration) [2, 13]: 2.154
Mean (compound concentration) [2, 14]: 1.60
Tube 1 (compound concentration) [2, 14]: 1.543
Tube 2 (compound concentration) [2, 14]: 1.638
Tube 3 (compound concentration) [2, 14]: 1.62
half-life [2, 15]: > 24 h
half-life [2, 16]: > 24 h
Kd (NbALFA): 0.0376 nM
ka (NbALFA): 1.78e+07 M⁻¹ s⁻¹
kd (NbALFA): 0.00067 s⁻¹
binding with respect to NbALFA (NbALFA; in words): very good binding
LogEC50 (anti-ALFA VHH): 0.7763
EC50 (anti-ALFA VHH): 5.97 nM
EC50 (anti-ALFA VHH; listed as Ac_5E-9Cyclo_ALFA): 6 nM

Conc. (% of T0) [1, 4]: 100.0 % of T0
Mean (compound concentration) [1, 4]: 2.42
Tube 2 (compound concentration) [1, 4]: 2.424
Tube 3 (compound concentration) [1, 4]: 2.518
Tube 1 (compound concentration) [1, 5]: 2.314
Mean (compound concentration) [1, 6]: 2.21
Tube 1 (compound concentration) [1, 6]: 2.188
Tube 2 (compound concentration) [1, 6]: 2.234
Tube 3 (compound concentration) [1, 6]: 2.212
Mean (compound concentration) [1, 7]: 1.73
Tube 1 (compound concentration) [1, 7]: 1.843
Tube 2 (compound concentration) [1, 7]: 1.803
Tube 3 (compound concentration) [1, 7]: 1.545
Mean (compound concentration) [1, 8]: 0.77
Tube 1 (compound concentration) [1, 8]: 0.844
Tube 2 (compound concentration) [1, 8]: 0.761
Tube 3 (compound concentration) [1, 8]: 0.694
remaining at 24 h, 10 µM ([1]; Conc. (% of T0), human plasma, 37° C., timepoint 24 h): 31.7%
remaining at 2 h, 10 µM ([1]; Conc. (% of T0), human plasma, 37° C., timepoint 2 h): 91.4%
remaining at 6 h, 10 µM ([1]; Conc. (% of T0), human plasma, 37° C., timepoint 6 h): 71.5%
half-life [1, 9]: 14.5 h
remaining at 2 h, 10 µM [2]: 94.3%
remaining at 6 h, 10 µM [2]: 80.5%
remaining at 24 h, 10 µM [2]: 52.5%
Conc. (% of T0) [2, 10]: 100.0 % of T0
Mean (compound concentration) [2, 10]: 2.42
Tube 2 (compound concentration) [2, 10]: 2.424
Tube 3 (compound concentration) [2, 10]: 2.497
Tube 1 (compound concentration) [2, 11]: 2.336
Mean (compound concentration) [2, 12]: 2.28
Tube 1 (compound concentration) [2, 12]: 2.277
Tube 2 (compound concentration) [2, 12]: 2.329
Tube 3 (compound concentration) [2, 12]: 2.237
Mean (compound concentration) [2, 13]: 1.95
Tube 1 (compound concentration) [2, 13]: 1.96
Tube 2 (compound concentration) [2, 13]: 2.008
Tube 3 (compound concentration) [2, 13]: 1.874
Mean (compound concentration) [2, 14]: 1.27
Tube 1 (compound concentration) [2, 14]: 1.334
Tube 2 (compound concentration) [2, 14]: 1.273
Tube 3 (compound concentration) [2, 14]: 1.201
half-life [2, 15]: > 24 h
half-life [2, 16]: 26.2 h
Kd (NbALFA): 0.436 nM
ka (NbALFA): 1.81e+07 M⁻¹ s⁻¹
kd (NbALFA): 0.0079 s⁻¹
LogEC50 (anti-ALFA VHH): 2.576
EC50 (anti-ALFA VHH): 377 nM
Molecule: CC(=O)N[C@@H](CO)C(=O)N[C@@H](CCCNC(=N)N)C(=O)N[C@@H](CC(C)C)C(=O)N[C@@H](CCC(=O)O)C(=O)N[C@H]1CC(=O)NCCCC[C@@H](C(=O)N[C@@H](CCCNC(=N)N)C(=O)N[C@@H](CC(C)C)C(=O)N[C@H](C(=O)N[C@@H](CCC(=O)O)C(N)=O)[C@@H](C)O)NC(=O)[C@H](CCCNC(=N)N)NC(=O)[C@H](CC(C)C)NC(=O)[C@H](CCC(=O)O)NC1=O [SD15196, Ac-Ser-Arg-Leu-Glu-(cyclo5)Asp-Glu-Leu-Arg-(cyclo9)Lys-Arg-Leu-Thr-Glu-NH2] (Ac-SRLEDELRKRLTE-NH2; lactam 5-9)

Molecule: Ac(C-Alexa680)(PEG6)PSRLE(E)ELR(K)RLTE-NH2 [cyclic ALFA peptide]
binding to target expressing cells (AlexaFluor680 signal) [3]: bind only to target expressing cells previously incubated with the NbALFA×anti-Target Adaptor-Protein
binding on the controls [3]: No binding

Molecule: Ac(C-Alexa680)(PEG6)PSRLEEELRRRLTE-NH2 ({Ac-C(Alexa680)-PEG6′}-PSRLEEELRRRLTE-NH2) [linear ALFA peptide, linear ALFA-peptide conjugated to AlexaFluor680, reference compound]
binding to target expressing cells (AlexaFluor680 signal) [3]: bind only to target expressing cells previously incubated with the NbALFA×anti-Target Adaptor-Protein
binding on the controls [3]: No binding
